From patent US8314122B2, “Using of organic solvents in wet granulation of moxifloxacin” (Abdi Ibrahim Ilac Sanayi Ve Ticaret Anonim Sirketi, priority 2008, dated 2012)
Entries after “also recorded” stand apart in the source; their conditions may differ. Counter-ions that a name gives are not always drawn.

Experiment: Wet granulation of anhydrous moxifloxacin hydrochloride, crystal form checked by X-ray powder diffractogram
Format: physicochemical
Text: Using of anhydrous moxifloxacin hydrochloride, of which X-ray powder diffractogram could be seen (FIG. 2), in pharmaceutical formulations provides eligible stability therefore preferred rather than moxifloxacin hydrochloride monohydrate. […] It is not desired and it should be prevented.
A wet granulation method with an organic solvent or mixtures of organic solvents is describe herein in which the organic solvent or mixtures of organic solvents are selected from isopropyl alcohol (IPA), acetone, ethanol, dichloromethane and mixtures thereof. […] It is not desired to be converted and thence If conversion is not desired, then granulation should not be performed with water or water mixtures. Anhydrous moxifloxacin hydrochloride should not be exposed to water in the preparation stage. The organic solvent is selected from isopropyl alcohol (IPA), acetone, ethanol, dichloromethane or mixtures thereof in the wet granulation method so as to obtain non-convertible formulations (respectively FIG. 4, FIG. 5, FIG. 6, FIG. 7).
POVIDONE K-30 (polyvinylpyrrolidone) is added to isopropyl alcohol and mixed until the POVIDONE K-30 (polyvinylpyrrolidone) is completely dissolved (Step 1). Moxifloxacin Hydrochloride and Microcrystalline Cellulose are transferred to a granulator and mixed (Step 2). The granulation solution from step 1 is added to the powder mixtures from step 2 and mixed. Wet granules are taken from the granulator to the oven and dried. The granules are sieved. MANNITOL SD 200 (mannitol) and croscarmellose sodium are transferred to the mixtures in the container and mixed. Magnesium stearate is sieved and added to the mixtures in the container and sieved. The blend is tabletted using appropriate punches according to the specifications.

COc1c(N2C[C@@H]3CCCN[C@@H]3C2)c(F)cc2c(=O)c(C(=O)O)cn(C3CC3)c12 [anhydrous moxifloxacin hydrochloride]
conversion of anhydrous form to moxifloxacin hydrochloride monohydrate (wet granulation with acetone (FIG. 5)): no conversion to moxifloxacin hydrochloride monohydrate | conversion of anhydrous form to moxifloxacin hydrochloride monohydrate (wet granulation with dichloromethane (FIG. 7)): no conversion to moxifloxacin hydrochloride monohydrate | conversion of anhydrous form to moxifloxacin hydrochloride monohydrate (wet granulation with ethanol (FIG. 6)): no conversion to moxifloxacin hydrochloride monohydrate | conversion of anhydrous form to moxifloxacin hydrochloride monohydrate (wet granulation with isopropyl alcohol (FIG. 4)): no conversion | conversion of anhydrous form to moxifloxacin hydrochloride monohydrate (wet granulation with water as wetting agent (FIG. 3), hydrochloride): instantly converted to moxifloxacin hydrochloride monohydrate; also recorded: conversion from anhydrous moxifloxacin hydrochloride to moxifloxacin hydrochloride monohydrate
